Test results taken from the CheMixHub ionic liquid set.
± gives the uncertainty stated by the source.

Assay: xn = mol fraction of the nth substance listed
Conditions: 101 kPa

CCCCCCCCCCCCCCCC[n+]1ccccc1.O=C([O-])C(O)c1ccccc1 + C[C@H](N)C(=O)O + O
electrical conductivity [S/m]
Conditions	293.15 K	298.15 K	303.15 K	308.15 K	313.15 K
x1 = 1.08e-06, x2 = 0	0.00061 ± 0.00098	0.00068 ± 0.0011	0.00076 ± 0.0012	0.00083 ± 0.0013	0.0009 ± 0.0015
x1 = 1.09e-06, x2 = 0.0009002	0.0006 ± 0.00087	0.00069 ± 0.001	0.00077 ± 0.0011	0.00087 ± 0.0012	0.00098 ± 0.0013
x1 = 1.09e-06, x2 = 0.001799	0.00068 ± 0.00073	0.00078 ± 0.00082	0.00088 ± 0.00091	0.001 ± 0.001	0.0011 ± 0.0011
x1 = 1.98e-06, x2 = 0	0.001 ± 0.001	0.0012 ± 0.0012	0.0013 ± 0.0013	0.0014 ± 0.0014	0.0016 ± 0.0015
x1 = 2.17e-06, x2 = 0.0009002	0.00107 ± 0.00085	0.00122 ± 0.00096	0.0014 ± 0.0011	0.0015 ± 0.0012	0.0017 ± 0.0013
x1 = 2.18e-06, x2 = 0.001799	0.00104 ± 0.00074	0.0012 ± 0.00085	0.00135 ± 0.00095	0.0015 ± 0.001	0.0017 ± 0.0011
x1 = 2.88e-06, x2 = 0	0.00147 ± 0.00099	0.0016 ± 0.0011	0.0018 ± 0.0012	0.002 ± 0.0014	0.0022 ± 0.0015
x1 = 3.26e-06, x2 = 0.0009002	0.0015 ± 0.00089	0.0017 ± 0.001	0.0019 ± 0.0011	0.0021 ± 0.0012	0.0024 ± 0.0014
x1 = 3.45e-06, x2 = 0.001799	0.00147 ± 0.00078	0.00167 ± 0.00088	0.00187 ± 0.00097	0.0021 ± 0.0011	0.0024 ± 0.0012
x1 = 3.96e-06, x2 = 0	0.0019 ± 0.001	0.0022 ± 0.0011	0.0024 ± 0.0013	0.0026 ± 0.0014	0.0029 ± 0.0015
x1 = 4.52e-06, x2 = 0.0009002	0.00197 ± 0.00089	0.0022 ± 0.001	0.0025 ± 0.0011	0.0028 ± 0.0012	0.0031 ± 0.0014
x1 = 4.54e-06, x2 = 0.001799	0.0019 ± 0.00081	0.00216 ± 0.0009	0.0024 ± 0.001	0.0027 ± 0.0011	0.003 ± 0.0012
x1 = 4.69e-06, x2 = 0	0.0023 ± 0.001	0.0026 ± 0.0011	0.0029 ± 0.0013	0.0031 ± 0.0014	0.0035 ± 0.0015
x1 = 5.61e-06, x2 = 0.0009002	0.00243 ± 0.00087	0.00275 ± 0.00098	0.0031 ± 0.0011	0.0034 ± 0.0012	0.0038 ± 0.0013
x1 = 5.81e-06, x2 = 0.001799	0.00234 ± 0.00081	0.00265 ± 0.00092	0.0029 ± 0.001	0.0033 ± 0.0011	0.0036 ± 0.0012
x1 = 5.95e-06, x2 = 0	0.00281 ± 0.00098	0.0032 ± 0.0011	0.0035 ± 0.0012	0.0038 ± 0.0013	0.0042 ± 0.0015
x1 = 6.87e-06, x2 = 0.0009002	0.00295 ± 0.00089	0.0033 ± 0.001	0.0037 ± 0.0011	0.0041 ± 0.0012	0.0045 ± 0.0014
x1 = 7.21e-06, x2 = 0	0.00341 ± 0.00095	0.0038 ± 0.0011	0.0042 ± 0.0012	0.0046 ± 0.0013	0.0051 ± 0.0015
x1 = 7.26e-06, x2 = 0.001799	0.00287 ± 0.00076	0.00323 ± 0.00085	0.0036 ± 0.00096	0.004 ± 0.0011	0.0044 ± 0.0012
x1 = 8.32e-06, x2 = 0.0009002	0.00346 ± 0.00082	0.00391 ± 0.00094	0.0043 ± 0.001	0.0048 ± 0.0012	0.0053 ± 0.0013
x1 = 8.71e-06, x2 = 0.001799	0.00335 ± 0.00071	0.00379 ± 0.00081	0.00423 ± 0.00091	0.0047 ± 0.001	0.0052 ± 0.0012
x1 = 8.83e-06, x2 = 0	0.00406 ± 0.00092	0.0046 ± 0.001	0.005 ± 0.0011	0.0055 ± 0.0013	0.006 ± 0.0014
x1 = 9.58e-06, x2 = 0.0009002	0.00394 ± 0.00075	0.00445 ± 0.00086	0.00497 ± 0.00097	0.0055 ± 0.0011	0.0061 ± 0.0012
x1 = 1.045e-05, x2 = 0	0.00469 ± 0.00089	0.0053 ± 0.001	0.0058 ± 0.0011	0.0065 ± 0.0012	0.0071 ± 0.0014
x1 = 1.071e-05, x2 = 0.001799	0.0039 ± 0.00071	0.00441 ± 0.00081	0.00494 ± 0.00091	0.0055 ± 0.001	0.0061 ± 0.0012
x1 = 1.121e-05, x2 = 0.0009002	0.00434 ± 0.00075	0.00493 ± 0.00085	0.00552 ± 0.00096	0.0062 ± 0.0011	0.0069 ± 0.0012
x1 = 1.207e-05, x2 = 0	0.00516 ± 0.00088	0.0058 ± 0.001	0.0064 ± 0.0011	0.0071 ± 0.0012	0.0079 ± 0.0014
x1 = 1.216e-05, x2 = 0.001799	0.00419 ± 0.00069	0.00476 ± 0.00078	0.00533 ± 0.00088	0.00596 ± 0.00099	0.0067 ± 0.0011
x1 = 1.284e-05, x2 = 0.0009002	0.00475 ± 0.00075	0.0054 ± 0.00085	0.006 ± 0.001	0.0067 ± 0.0011	0.0075 ± 0.0012
x1 = 1.351e-05, x2 = 0	0.00562 ± 0.00086	0.00631 ± 0.00097	0.007 ± 0.0011	0.0077 ± 0.0012	0.0085 ± 0.0013
x1 = 1.361e-05, x2 = 0.001799	0.00459 ± 0.00069	0.0052 ± 0.00079	0.00583 ± 0.00088	0.00654 ± 0.00098	0.0073 ± 0.0011
x1 = 1.411e-05, x2 = 0.0009002	0.00513 ± 0.00078	0.0058 ± 0.00088	0.00649 ± 0.00099	0.0072 ± 0.0011	0.0081 ± 0.0012
x1 = 1.478e-05, x2 = 0	0.00603 ± 0.0009	0.0068 ± 0.001	0.0075 ± 0.0011	0.0083 ± 0.0012	0.0092 ± 0.0013
x1 = 1.506e-05, x2 = 0.001799	0.00495 ± 0.00073	0.00559 ± 0.00081	0.00626 ± 0.00092	0.007 ± 0.001	0.0079 ± 0.0011
x1 = 1.519e-05, x2 = 0.0009002	0.00545 ± 0.0009	0.00616 ± 0.00095	0.0069 ± 0.0011	0.0077 ± 0.0012	0.0085 ± 0.0013
x1 = 1.622e-05, x2 = 0	0.00644 ± 0.00092	0.0072 ± 0.001	0.008 ± 0.0011	0.0089 ± 0.0013	0.0098 ± 0.0014
x1 = 1.646e-05, x2 = 0.0009002	0.00578 ± 0.00087	0.00652 ± 0.00096	0.0073 ± 0.0011	0.0081 ± 0.0012	0.009 ± 0.0013
x1 = 1.651e-05, x2 = 0.001799	0.00526 ± 0.00073	0.00598 ± 0.00083	0.00669 ± 0.00094	0.0075 ± 0.001	0.0083 ± 0.0011
x1 = 1.766e-05, x2 = 0	0.00687 ± 0.00093	0.0077 ± 0.001	0.0085 ± 0.0012	0.0094 ± 0.0013	0.0104 ± 0.0014
x1 = 1.778e-05, x2 = 0.001799	0.00557 ± 0.00075	0.00629 ± 0.00085	0.00707 ± 0.00096	0.0079 ± 0.0011	0.0088 ± 0.0011
